The text below walks through data of PubChem BioAssay (NCI).

Structures are written as SMILES.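 Interpolation was linear, between the two tested concentrations surrounding the appropriate level; five concentrations were tested over 48 hours in 96-well plates. The concentration for full growth arrest is given as TGI.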 Some results are limits rather than exact numbers.

What all share (test): NCI-60 cell line screen, 48 h
Assay [1] has as its system NCI-H226 lung.
The test system of assay [2] is IGROV1 ovarian.
For assay [3], the system named is HCT-15 colon.
The test system of assay [4] is UACC-62 melanoma.
In assay [5] the test system is UACC-257 melanoma.
Assay [6] has as its system MDA-MB-435.
For assay [7], the system named is TK-10 renal.
The subject of assay [8] is NCI-H23 lung.
In assay [9] the test system is RXF 393 renal.
The test system of assay [10] is OVCAR-4 ovarian.
The subject of assay [11] is HCC-2998 colon.
In assay [12] the test system is SNB-19 CNS.
The test system of assay [13] is SNB-75 CNS.
For assay [14], the system named is SK-MEL-28 melanoma.
Assay [15] concerns SR leukemia.
For assay [16], the system named is EKVX NSCLC.
Assay [17] has as its system HL-60(TB) leukemia.
For assay [18], the system named is LOX IMVI melanoma.
Assay [19] relates to NCI-H460 lung.
The subject of assay [20] is CCRF-CEM leukemia.

For `O=C1/C(=C/c2ccc(O)cc2)CCc2ccc([N+](=O)[O-])cc21`, the TGI in [1] is > 92.7 µM; in assay [2] it was > 100 µM; in assay [3], > 100 µM; in [4], > 100 µM; in assay [5] it was > 100 µM; in [6] it was > 100 µM. For the same compound, the TGI in assay [7] is > 100 µM; in [8], > 100 µM; in assay [9], > 92.3 µM; in assay [10], > 100 µM; in assay [11], > 100 µM; in [12], 98.7 µM. The TGI in assay [13], in assay [14], in [15], in assay [16], in assay [17] and in assay [18] was > 100 µM in each case. Further, the TGI in assay [19] and in assay [20] was > 100 µM throughout.

Take `COc1ccc2c(=O)cc(-c3ccc(OC)c(OC)c3OC)oc2c1`: the TGI in assay [1], in assay [2], in [3], in [4], in assay [5] and in assay [6] was > 100 µM in each case. Also, the TGI in assay [7], in [8], in [9], in [10], in [11] and in [12] was > 100 µM in each case. Besides, the TGI in assay [13] was > 92.6 µM; in [14], > 100 µM; in assay [15], > 100 µM; in assay [16] it was > 100 µM; in assay [17], > 62.4 µM; in assay [18] it was > 100 µM. The TGI in assay [19] was > 100 µM; in assay [20], > 31.6 µM.

For the compound `O=C1CSC(c2ccccc2)N1c1ccc(-n2c(-c3ccccc3)nc3ccccc3c2=O)cc1` (stereo not given), the TGI in assay [1], in [2], in assay [3], in [4], in assay [5] and in [6] was > 100 µM in each case. Besides, the TGI in assay [7], in [8], in assay [9], in assay [10], in assay [11] and in [12] was > 100 µM throughout. Also, the TGI in assay [13], in assay [14], in assay [15], in assay [16], in assay [17] and in assay [18] was > 100 µM in each case. Further, the TGI in assay [19] and in assay [20] was > 100 µM in each case.

As for `C=C1[C@H](OCC(C)C)[C@@H](O)[C@@H](OC(=O)c2cccnc2)C(C)(C)/C=C/[C@H](C)[C@H](OC(C)=O)[C@@]2(O)C[C@@](C)(OC(C)=O)[C@H](OC(=O)c3ccccc3)[C@@H]2[C@H]1OC(C)=O`, the TGI in assay [1] is 4.57 µM; in assay [2], > 5 µM; in assay [3], 4.97 µM; in assay [4], > 5 µM; in assay [5] it was > 5 µM; in assay [6], > 3.97 µM. Moreover, the TGI in assay [7] is > 5 µM; in assay [8] it was > 3.13 µM; in [9] it was > 5 µM; in [10], > 5 µM; in assay [11] it was 1.59 µM; in assay [12], > 5 µM. The TGI in assay [13] was > 2.87 µM; in assay [14] it was > 5 µM; in assay [15], > 3.35 µM; in assay [16] it was > 5 µM; in assay [17] it was > 2.09 µM; in [18] it was > 5 µM. The TGI in assay [19] is 1.52 µM; in assay [20], > 2.82 µM.
